# Measured values from patent EP0142732B1, “Pheophorbide derivatives and pharmaceutical preparations containing them” (TOYO HAKKA KOGYO KABUSHIKI KAISHA, priority 1983, dated 1985).
# Test system: nitrosamine-induced cancer cells of the pancreas
# Assay: N2 pulsed laser spectro-fluorometry of removed organs after administration to tumour-bearing hamsters
# Type: in vivo, golden hamsters
# Conditions: 24 hours after administration; 5 mg in 1 ml physiological saline
# Procedure: Five mg of the test drug sodium 9-desoxo-9-hydroxy pheophorbide diluted in physiological saline (1 ml) was administered (1 ml) to golden hamsters (5 each for a group) 14-21 days after transplantation of nitrosamine-induced cancer cells of the pancreas, after which cancer cells and other organs were removed. N2-pulsed laser (N2 337 nm, 2 ns 400-1000 nm) was irradiated to each organ thus obtained to measure N2 pulsed laser spectro-fluorometry.
# N2 pulsed laser spectro-fluorometry of each removed organ was measured 24 hours and 48 hours afterwards to investigate the wavelengths of 600 to 900 nm based on the peak wavelengths of NADH of 470 nm.
# Golden hamsters (5 per one group) 14-21 days after transplantation of nitrosamine-induced cancer cells of the pancreas were administered 5 mg each of sodium 2-desethenyl-2-(1-hydroxyethyl) pheophorbide (sodium salt of (2)), sodium 2-desethynyl-2-(1-hydroxyethyl)-9-desoxo-9-hydroxy pheophorbide (sodium salt (3)), sodium 2-desethenyl-2-(1-acetyloxyethyl)-9-desoxo-9-acetyloxy pheophorbide (sodium salt of (4)), sodium ethylene glycol mono-10b-pheophorbate (sodium salt of (8)), disodium ethylene glycol di-10b-pheophorbate (sodium salt of (10)) and sodium N-phenylalanine 10b-methyl pheophorbid amide (sodium salt of (9)) respectively diluted with physiological saline (1 ml). Cancer cells and other organs were removed, irradiated with N2-pulsed laser (N2, 337 nm, 2 ns 400-1000 nm) to measure N2 pulsed laser spectro fluorometry. Using the. NADH peak wavelength of 470 nm as the reference, wavelengths in the range of from 600-900 nm were studied.
# Various organs were removed 24 hours after administration and their N2 pulsed laser spectro-fluorometry was measured.
row,Molecule,accumulation in cancer cells and other organs (N2 pulsed laser spectro-fluorometry)
1,"C=Cc1c(C)c2cc3nc(c4c5[nH]c(cc6nc(cc1[nH]2)C(C)=C6CC)c(C)c5C(O)C4C(=O)OC)C(CCC(=O)O)C3C (stereo not shown) [9-Desoxo-9-hydroxy-pheophorbate (11), 9-desoxo-9-hydroxy-pheophorbide]",generally found in organs

# Same assay, conditions: 48 hours after administration; 5 mg in 1 ml physiological saline
row,Molecule,accumulation in cancer cells and other organs (N2 pulsed laser spectro-fluorometry)
1,"C=Cc1c(C)c2cc3nc(c4c5[nH]c(cc6nc(cc1[nH]2)C(C)=C6CC)c(C)c5C(O)C4C(=O)OC)C(CCC(=O)O)C3C (stereo not shown) [9-Desoxo-9-hydroxy-pheophorbate (11), 9-desoxo-9-hydroxy-pheophorbide]",markedly accumulated in cancer cells alone but not in other cells

# Same assay, conditions: sodium compounds; organs removed 24 hours after administration; N2 337 nm laser, 600-900 nm
row,Molecule,"N2 pulsed laser spectro-fluorometry, wavelengths calculated using the NADH peak wavelength of 470 nm as the reference"
1,C=Cc1c(C)c2cc3nc(c4c5[nH]c(cc6nc(cc1[nH]2)C(C)=C6CC)c(C)c5C(=O)C4C(=O)OCCOC(C)=O)C(CCC(=O)O)C3C (stereo not shown) [Monoacetylethylene glycol mono-10b-pheophorbate],1.30
2,C=Cc1c(C)c2cc3nc(c4c5[nH]c(cc6nc(cc1[nH]2)C(C)=C6CC)c(C)c5C(=O)C4C(=O)NC(Cc1ccccc1)C(=O)O)C(CCC(=O)OC)C3C (stereo not shown) [N-phenylalanine 10b-methylpheophorbidamide],0.75
3,Ethylene glycol di-10b-2-desethenyl-2-(1-hydroxyethyl)-9-desoxo-9-hydroxy-pheophorbate,1.80
4,Ethylene glycol di-10b-2-desethenyl-2-(1-hydroxyethyl)-pheophorbate,2.50
5,CCC1=C(C)c2cc3[nH]c(cc4nc(c5c6[nH]c(cc1n2)c(C)c6C(=O)C5C(=O)OC)C(CCC(=O)O)C4C)c(C)c3C(C)O (stereo not shown) [2-desethenyl-2-(1-hydroxyethyl)-pheophorbide],1.90
6,C=Cc1c(C)c2cc3nc(c4c5[nH]c(cc6nc(cc1[nH]2)C(C)=C6CC)c(C)c5C(O)C4C(=O)NC(Cc1ccccc1)C(=O)O)C(CCC(=O)OC)C3C (stereo not shown) [N-Phenylalanine 10b-9-desoxo-9-hydroxy-methylpheophorbidamide],0.73
7,"C=Cc1c(C)c2cc3nc(c4c5[nH]c(cc6nc(cc1[nH]2)C(C)=C6CC)c(C)c5C(=O)C4C(=O)OCCOC(=O)C1C(=O)c2c(C)c4cc5nc(cc6[nH]c(cc7nc(c1c2[nH]4)C(CCC(=O)O)C7C)c(C)c6C=C)C(C)=C5CC)C(CCC(=O)O)C3C (stereo not shown) [Ethylene glycol di-10b-pheophorbate (10), ethylene glycol di-10b-pheophorbate]",2.78
8,C=Cc1c(C)c2cc3nc(c4c5[nH]c(cc6nc(cc1[nH]2)C(C)=C6CC)c(C)c5C(O)C4C(=O)OCCOC(=O)C1c2c4nc(cc5[nH]c(cc6nc(cc7[nH]c2c(c7C)C1O)C(CC)=C6C)c(C=C)c5C)C(C)C4CCC(=O)O)C(CCC(=O)O)C3C (stereo not shown) [Ethylene glycol di-10b-9-desoxo-9-hydroxypheophorbate],2.50
9,CCC1=C(C)c2cc3[nH]c(cc4nc(c5c6[nH]c(cc1n2)c(C)c6C(OC(C)=O)C5C(=O)OC)C(CCC(=O)O)C4C)c(C)c3C(C)OC(C)=O (stereo not shown) [2-Desethenyl-2-(1-acetyloxyethyl)-9-desoxo-9-acetyloxypheophorbide],0.48
10,CCC1=C(C)c2cc3[nH]c(cc4nc(c5c6[nH]c(cc1n2)c(C)c6C(O)C5C(=O)OC)C(CCC(=O)O)C4C)c(C)c3C(C)OC(C)=O (stereo not shown) [2-Desethenyl-2-(1-acetyloxyethyl)-9-desoxo-9-hydroxy-pheophorbide],0.95
11,Monoacetylethylene glycol mono-10b-9-desoxo-9-hydroxy-pheophorbate,1.20
12,"C=Cc1c(C)c2cc3nc(c4c5[nH]c(cc6nc(cc1[nH]2)C(C)=C6CC)c(C)c5C(OC(C)=O)C4C(=O)OC)C(CCC(=O)O)C3C (stereo not shown) [9-Desoxo-9-acetyloxy-pheophorbide, 9-desoxo-9-acetyloxy-pheophorbide]",0.89
13,"C=Cc1c(C)c2cc3nc(c4c5[nH]c(cc6nc(cc1[nH]2)C(C)=C6CC)c(C)c5C(=O)C4)C(CCC(=O)O)C3C (stereo not shown) [Pyropheophorbide, reference compound]",0.25
14,C=Cc1c(C)c2cc3nc(c4c5[nH]c(cc6nc(cc1[nH]2)C(C)=C6CC)c(C)c5C(=O)C4C(=O)OCCO)C(CCC(=O)O)C3C (stereo not shown) [ethylene glycol mono-10b-pheophorbate],1.72
15,"C=Cc1c(C)c2cc3nc(c4c5[nH]c(cc6nc(cc1[nH]2)C(C)=C6CC)c(C)c5C(=O)C4C(=O)OC)C(CCC(=O)O)C3C (stereo not shown) [Pheophorbide (1), pheophorbide]",0.78
16,Monoacetylethylene glycol mono-10b-9-desoxo-9-acetyloxy-pheophorbate,0.85
17,C=Cc1c(C)c2cc3nc(c4c5[nH]c(cc6nc(cc1[nH]2)C(C)=C6CC)c(C)c5C(O)C4C(=O)OCCO)C(CCC(=O)O)C3C (stereo not shown) [Ethylene glycol mono-10b-9-desoxo-9-hydroxy-pheophorbate],2.10
18,9-Desoxo-9-hydroxy-pheophorbide C,0.32
19,CCC1=C(C)c2cc3[nH]c(cc4nc(c5c6[nH]c(cc1n2)c(C)c6C(O)C5C(=O)OC)C(CCC(=O)O)C4C)c(C)c3C(C)O (stereo not shown) [2-desethenyl-2-(1-hydroxyethyl)-9-desoxo-9-hydroxy-pheophorbide],3.13
20,"C=Cc1c(C)c2cc3nc(c4c5[nH]c(cc6nc(cc1[nH]2)C(C)=C6CC)c(C)c5C(O)C4C(=O)OC)C(CCC(=O)O)C3C (stereo not shown) [9-Desoxo-9-hydroxy-pheophorbate (11), 9-desoxo-9-hydroxy-pheophorbide]",0.93
21,C=Cc1c(C)c2cc3nc(c4c5[nH]c(cc6nc(cc1[nH]2)C(C)=C6CC)c(C)c5C(O)C4)C(CCC(=O)O)C3C (stereo not shown) [9-Desoxo-9-hydroxy-pyropheophorbide],0.98

# Test system: leukemic Molt 4 Cell
# Assay: Biochemiluminescence by single photoncounter system after laser irradiation (destruction of cancer cells)
# Type: cell-based
# Conditions: Homo sapiens, 100 µg/2 ml, incubated 24 hours at 37°C, He-Ne laser 630 nm, 10 min, 20 mW, read-out: cancer cells destroyed
# Procedure: Sodium 9-desoxo-9-hydroxy pheophorbide dissolved in physiological saline of respective concentrations (25 µg/2 ml, 50 µg/2 ml, […]) was added to leukemic Molt 4 Cell ([…] Cells) and the resultant product was incubated for 24 hours at 37°C.
# Each incubated cell thus obtained was irradiated with laser (He-Ne gas, 630 nm, 10 min, 20 mW) and trace biochemiluminescence was measured by single photoncounter system.
# Intensity of biochemiluminescence substantially correponds to the degree of destructive effect on cancer cells and thus by studying the biochemiluminescence by single photoncounter system, it is possible to predict the destructive effect on cancer cells.
# Leukemic Molt 4 cell ([…] cells) was added with physiological saline containing sodium 2- desethenyl-2-(1-hydroxyethyl) pheophorbide (sodium salt of (2)) in respective concentrations ([…], 100 µg/2 ml) and then incubated (37°C, 24 hours). Incubated cells each were irradiated with laser ([…], 630 nm, 10 min, 20 mW) to investigate generation of biochemiluminescence by single photoncounter system by measuring biochemiluminescence; The intensity of biochemiluminescence by single photoncounter system substantially corresponds to the degree of destruction of the cancer cells. […]
row,Molecule,cytotoxicity at 50 µg/mL
1,CCC1=C(C)c2cc3[nH]c(cc4nc(c5c6[nH]c(cc1n2)c(C)c6C(=O)C5C(=O)OC)C(CCC(=O)O)C4C)c(C)c3C(C)O (stereo not shown) [2-desethenyl-2-(1-hydroxyethyl)-pheophorbide],> 95%
2,"C=Cc1c(C)c2cc3nc(c4c5[nH]c(cc6nc(cc1[nH]2)C(C)=C6CC)c(C)c5C(O)C4C(=O)OC)C(CCC(=O)O)C3C (stereo not shown) [9-Desoxo-9-hydroxy-pheophorbate (11), 9-desoxo-9-hydroxy-pheophorbide]",> 95%
